Data: patent US7268146B2, “Ring fused pyrazole derivatives as CRF antagonists” (Palo Alto LLC, priority 2001, dated 2007)
Counter-ions that a name gives are not always drawn.

Row | Compound | melting point
1 | CC/C=C(\CCC)c1c2c(nn1C)N(c1c(C)cc(C)cc1C)CCCC2 [Example 6d, 2-Methyl-3-(1-propylbut-1-enyl)-8-(2,4,6-trimethylphenyl)-2,4,5,6,7,8-hexahydro-1,2,8-triazaazulene] | 101.9 to 103.9 °C
2 | CCC(O)c1c2c(nn1C)N(c1c(C)cc(C)cc1C)CCC2 (stereo not drawn) [Example 5j, 1-[2-Methyl-7-(2,4,6-trimethylphenyl)-4,5,6,7-tetrahydro-2H-pyrazolo[3,4-b]pyridin-3-yl]propan-1-ol] | 179.4 to 180.9 °C
3 | CCCC(O)(c1nccn1CC)c1c2c(nn1C)N(c1c(C)cc(C)cc1C)CCC2 (stereo not drawn) [Example 5k, 1-(1-Ethyl-1H-imidazol-2-yl)-1-[2-methyl-7-(2,4,6-trimethylphenyl)-4,5,6,7-tetrahydro-2H-pyrazolo[3,4-b]pyridin-3-yl]butan-1-ol] | 94.9 to 100.9 °C
4 | CCCC(O)(CCC)c1c2c(nn1C)N(c1c(C)cc(C)cc1C)CCC2 [Example 5b, 4-[2-Methyl-7-(2,4,6-trimethylphenyl)-4,5,6,7-tetrahydro-2H-pyrazolo[3,4-b]pyridin-3-yl]heptan-4-ol] | 126 to 127.9 °C
5 | CCCC(O)(CCC)c1c2c(nn1C)N(c1ccc(Cl)cc1Cl)CCC2 [Example 5e, 4-[7-(2,4-Dichlorophenyl)-2-methyl-4,5,6,7-tetrahydro-2H-pyrazolo[3,4-b]pyridin-3-yl]heptan-4-ol] | 121.4 to 122.6 °C
6 | Cc1cc(C)c(N2CCCc3c2nn(C)c3C(O)c2ccco2)c(C)c1 (stereo not drawn) [Example 5i, Furan-2-yl[2-methyl-7-(2,4,6-trimethyl-phenyl)-4,5,6,7-tetrahydro-2H-pyrazolo[3,4-b]pyridin-3-yl]methanol] | 163.1 to 174.4 °C
7 | Cc1cc(C)c(N2CCCc3c2nn(C)c3CN2CCc3ccccc3C2)c(C)c1 (as salt: hydrochloride) [Example 11, 2-[2-Methyl-7-(2,4,6-trimethyl-phenyl)-4,5,6,7-tetrahydro-2H-pyrazolo[3,4-b]pyridin-3-ylmethyl]-1,2,3,4-tetrahydroisoquinolinedihydrochloride] | 236.4 to 241 °C
8 | COCC(O)(COC)c1c2c(nn1C)N(c1c(C)cc(C)cc1C)CCC2 [Example 5f, 1,3-Dimethoxy-2-[2-methyl-7-(2,4,6-trimethylphenyl)-4,5,6,7-tetrahydro-2H-pyrazolo[3,4-b]pyridin-3-yl]propan-2-ol] | 120.3 to 121.8 °C
9 | Cc1cc(C)c(N2CCCc3c2nn(C)c3C2(O)CCOCC2)c(C)c1 [Example 5l, 4-[2-Methyl-7-(2,4,6-trimethylphenyl)-4,5,6,7-tetrahydro-2H-pyrazolo[3,4-b]pyridin-3-yl]tetrahydropyran-4-ol] | 193 to 195.1 °C
10 | Cc1cc(C)c(N2CCCc3cn(C)nc32)c(Cl)c1 [Example 5m, 7-(2-Chloro-4,6-dimethylphenyl)-2-methyl-4,5,6,7-tetrahydro-2H-pyrazolo[3,4-b]pyridine] | 97 to 98 °C
11 | Cc1cc(C)c(N2CCCc3c2nn(C)c3Br)c(C)c1 [Example 3, 3-Bromo-2-methyl-7-(2,4,6-trimethyl-phenyl)-4,5,6,7-tetrahydro-2H-pyrazolo[3,4-b]pyridine] | 94.6 to 97.9 °C
12 | CCCC(O)(c1nccs1)c1c2c(nn1C)N(c1c(C)cc(C)cc1C)CCC2 (stereo not drawn) [Example 5h, 1-[2-Methyl-7-(2,4,6-trimethylphenyl)-4,5,6,7-tetrahydro-2H-pyrazolo[3,4-b]pyridin-3-yl]-1-thiazol-2-ylbutan-1-ol] | 160.1 to 165.6 °C
13 | CC/C=C(\CCC)c1c2c(nn1C)N(c1c(C)cc(C)cc1Cl)CCC2 [Example 6a, 7-(2-Chloro-4,6-dimethylphenyl)-2-methyl-3-(1-propylbut-1-enyl)-4,5,6,7-tetrahydro-2H-pyrazolo[3,4-b]pyridine] | 86.7 to 88.2 °C
14 | CCCC(O)(CCC)c1c2c(nn1C)N(c1c(C)cc(C)cc1C)CCCC2 [Example 5d, 4-[2-Methyl-8-(2,4,6-trimethylphenyl)-2,4,5,6,7,8-hexahydro-1,2,8-triazaazulen-3-yl]heptan-4-ol] | 87 to 91.1 °C
15 | CC/C=C(\CCC)c1c2c(nn1C)N(c1c(C)cc(C)cc1C)CCC2 [Example 6b, 2-Methyl-3-(1-propylbut-1-enyl)-7-(2,4,6-trimethylphenyl)-4,5,6,7-tetrahydro-2H-pyrazolo[3,4-b]pyridine] | 101.6 to 102.6 °C
16 | CCCC(O)(CCC)c1c2c(nn1C)N(c1c(C)cc(C)cc1Cl)CCC2 [Example 5a, 4-[7-(2-Chloro-4,6-dimethylphenyl)-2-methyl-4,5,6,7-tetrahydro-2H-pyrazolo[3,4-b]pyridin-3-yl]heptan-4-ol] | 129 to 130 °C
17 | COCCC(O)(COC)c1c2c(nn1C)N(c1c(C)cc(C)cc1C)CCC2 (stereo not drawn) [Example 5g, 1,4-Dimethoxy-2-[2-methyl-7-(2,4,6-trimethylphenyl)-4,5,6,7-tetrahydro-2H-pyrazolo[3,4-b]pyridin-3-yl]butan-2-ol] | 107.9 to 110.9 °C

The remaining lines, values ahead:

Row | melting point | Compound
18 | 169.9 to 172.8 °C | COc1cccc(OC)c1-c1c2c(nn1C)N(c1c(C)cc(C)cc1C)CCC2 [Example 13b, 3-(2,6-Dimethoxyphenyl)-2-methyl-7-(2,4,6-trimethylphenyl)-4,5,6,7-tetrahydro-2H-pyrazolo[3,4-b]pyridine]
19 | 80.3 to 87.7 °C | Cc1cc(C)c(N2CCCc3c2nn(C)c3C(=O)N2CCc3ccccc3C2)c(C)c1 [Example 10b, (3,4-Dihydro-1H-isoquinolin-2-yl)-[2-methyl-7-(2,4,6-trimethyl-phenyl)-4,5,6,7-tetrahydro-2H-pyrazolo[3,4-b]pyridin-3-yl]-methanone]
20 | 96 to 98.1 °C | CCCC(CCC)c1c2c(nn1C)N(c1c(C)cc(C)cc1C)CCCC2 [Example 7d, 2-Methyl-3-(1-propylbutyl)-8-(2,4,6-trimethylphenyl)-2,4,5,6,7,8-hexahydro-1,2,8-triazaazulene]
21 | 88.9 to 91.5 °C | CCCN(CCC)c1c2c(nn1C)N(c1c(C)cc(C)cc1C)CCC2 [Example 9ae, [2-Methyl-7-(2,4,6-trimethylphenyl)-4,5,6,7-tetrahydro-2H-pyrazoio[3,4-b]pyridin-3-yl]-dipropylamine]
22 | 100.1 to 104.4 °C | CCCC(COC)Nc1c2c(nn1C)N(c1c(C)cc(C)cc1C)CCC2 (stereo not drawn) [Example 9ak, (1-Methoxymethylbutyl)-[2-methyl-7-(2,4,6-trimethylphenyl)-4,5,6,7-tetrahydro-2H-pyrazolo[3,4-b]pyridin-3-yl]-amine]
23 | 99.3 to 104.9 °C | CCC(CC)Nc1c2c(nn1C)N(c1c(C)cc(C)cc1C)CCC2 [Example 9af, (1-Ethylpropyl)-[2-methyl-7-(2,4,6-trimethyl-phenyl)-4,5,6,7-tetrahydro-2H-pyrazolo[3,4-b]pyridin-3-yl]-amine]
24 | 204 to 207.8 °C | CCOC(=O)Nc1c2c(nn1C)N(c1c(C)cc(C)cc1Cl)CCC2 [Example 8d, [7-(2-Chloro-4,6-dimethylphenyl)-2-methyl-4,5,6,7-tetrahydro-2H-pyrazolo[3,4-b]pyridin-3-yl]carbamic acid ethyl ester]
25 | 90 to 91 °C | CCCN(CCC)c1c2c(nn1C)N(c1c(C)cc(C)cc1Cl)CCC2 [Example 9a, [7-(2-Chloro-4,6-dimethylphenyl)-2-methyl-4,5,6,7-tetrahydro-2H-pyrazolo[3,4-b]pyridin-3-yl]dipropylamine]
26 | 96.5 to 102.5 °C | CCC(COC)Nc1c2c(nn1C)N(c1c(C)cc(C)cc1C)CCC2 (stereo not drawn) [Example 9aj, (1-Methoxymethylpropyl)-[2-methyl-7-(2,4,6-trimethylphenyl)-4,5,6,7-tetrahydro-2H-pyrazolo[3,4-b]pyridin-3-yl]-amine]
27 | 133.8 to 135 °C | COCC(=O)Nc1c2c(nn1C)N(c1c(C)cc(C)cc1C)CCC2 [Example 10d, 2-Methoxy-N-[2-methyl-7-(2,4,6-trimethyl-phenyl)-4,5,6,7-tetrahydro-2H-pyrazolo[3,4-b]pyridin-3-yl]acetamide]
28 | 228.6 to 233.9 °C | Cc1cc(C)c(N2CCCc3c2nn(C)c3C(=O)O)c(C)c1 [Example 8b, 7-(2,4,6-Trimethylphenyl)-2-methyl-4,5,6,7-tetrahydro-2H-pyrazolo[3,4-b]pyridine-3-carboxylic acid]
29 | 171.4 to 175.7 °C | Cc1cc(C)c(N2CCCc3c2nn(C)c3NC(=O)OC(C)(C)C)c(Cl)c1 [Example 8c, [7-(2-Chloro-4,6-dimethylphenyl)-2-methyl-4,5,6,7-tetrahydro-2H-pyrazolo[3,4-b]pyridin-3-yl]carbamic acid tert-butyl ester]
30 | 247.8 to 248.3 °C | Cc1cc(C)c(N2CCCc3c2nn(C)c3C(=O)O)c(Cl)c1 [Example 8a, 7-(2-Chloro-4,6-dimethylphenyl)-2-methyl-4,5,6,7-tetrahydro-2H-pyrazolo[3,4-b]pyridine-3-carboxylic acid]
31 | 87.6 to 90.3 °C | CCCC(c1cccs1)c1c2c(nn1C)N(c1c(C)cc(C)cc1C)CCC2 (stereo not drawn) [Example 7c, 2-Methyl-3-(1-thiophen-2-ylbutyl)-7-(2,4,6-trimethylphenyl)-4,5,6,7-tetrahydro-2H-pyrazolo[3,4-b]pyridine]
32 | 226 to 228 °C | CCC(=O)Nc1c2c(nn1C)N(c1c(C)cc(C)cc1C)CCC2 [Example 10c, N-[2-Methyl-7-(2,4,6-trimethylphenyl)-4,5,6,7-tetrahydro-2H-pyrazolo[3,4-b]pyridin-3-yl]propionamide]
33 | 120.6 to 122 °C | CCCN(CC1CC1)C(=O)c1c2c(nn1C)N(c1c(C)cc(C)cc1Cl)CCC2 [Example 10a, 7-(2-Chloro-4,6-dimethylphenyl)-2-methyl-4,5,6,7-tetrahydro-2H-pyrazolo[3,4-b]pyridine-3-carboxylic acidcyclopropylmethylpropylamide]
